Source: ChEMBL document CHEMBL1152889, “Melatonin: Quantum-chemical and biochemical investigation of antioxidant activity” (2009)

How the values were obtained:
Homo sapiens [1] = test: Antioxidant activity against lipid peroxidation in chronic renal failure patient plasma assessed as reduction in malondialdehyde level at 2 mg/kg treated once day before night sleep by thiobarbituric acid based spectrophotometry (Rvb=2.68 +/- 0.44 umol/L); type: functional, organism-based; set-up: dose 2 mg/kg; settings: TDE = time-dependent effect
Homo sapiens [2] = test: Antioxidant activity against lipid peroxidation in chronic renal failure patient plasma assessed as malondialdehyde level at 2 mg/kg treated once day before night sleep measured after 1 month by thiobarbituric acid based spectrophotometry (Rvb=2.68 +/- 0.44 umol/L); type: functional
Homo sapiens [3] = test: Antioxidant activity against lipid peroxidation in chronic renal failure patient plasma assessed as malondialdehyde level at 2 mg/kg treated once day before night sleep measured after 2 months by thiobarbituric acid based spectrophotometry (Rvb=2.68 +/- 0.44 umol/L); type: functional
Homo sapiens [4] = test: Antioxidant activity against lipid peroxidation in chronic renal failure patient plasma assessed as malondialdehyde level at 2 mg/kg treated once day before night sleep measured after 3 months by thiobarbituric acid based spectrophotometry (Rvb=2.68 +/- 0.44 umol/L); type: functional

**Q.** How did the Activity (Homo sapiens [1]) turn out when `COc1ccc2[nH]cc(CCNC(C)=O)c2c1` [MELATONIN] was run?
**A.** tde

**Q.** And the Activity (Homo sapiens [2])?
**A.** 4.02 µM

**Q.** And the Activity (Homo sapiens [3])?
**A.** 3.09 µM

**Q.** What about the Activity (Homo sapiens [4]) of the same compound?
**A.** 2.79 µM
